Holding throughout (type): in vivo
Data set [1] has as its system Myzus persicae (Green peach aphid). Briefly: Example B5: Myzus persicae feeding/contact activity, sunflower leaf discs. The note with it: foliar; for mortality at 200 ppm: Myzus persicae, 144 h, application rate of 200 ppm, mixed ages, 6 days after infestation, read-out: mortality; for mortality at 12.5 ppm: Concentration 12.5 ppm, Myzus persicae (feeding/contact, Example B5), read-out: Mortality (%). The procedure:
Sunflower leaf discs were placed onto agar in a 24-well microtiter plate and sprayed with aqueous test solutions prepared from 10,000 ppm DMSO stock solutions. After drying, the leaf discs were infested with an aphid population of mixed ages. The samples were assessed for mortality 6 days after infestation.

The test system of data set [2] is Euschistus heros (Neotropical Brown Stink Bug). Briefly: Example B3: Euschistus heros, soybean leaves, N2 nymphs. The note with it: for percent effect (mortality or growth inhibition) at 200 ppm: Euschistus heros, 120 h, application rate of 200 ppm, N2 nymphs, 5 days after infestation, read-out: effect in at least one of the two categories (mortality or growth inhibition); for mortality at 50 ppm: Concentration 50 ppm, Euschistus heros (Example B3), read-out: Mortality (%). The procedure: Soybean leaves on agar in 24-well microtiter plates were sprayed with aqueous test solutions prepared from 10,000 ppm DMSO stock solutions. After drying the leaves were infested with N2 nymphs. The samples were assessed for mortality and growth inhibition in comparison to untreated samples 5 days after infestation.

In data set [3] the test system is Myzus persicae (Green peach aphid). Briefly: Example B6: Myzus persicae systemic activity, pea seedlings. The note with it: for mortality at 24 ppm: Myzus persicae, 144 h, test rate of 24 ppm, mixed ages, 6 days after placing seedlings into test solutions, read-out: mortality; for mortality at 1.5 ppm: Concentration 1.5 ppm, Myzus persicae (systemic, Example B6), read-out: Mortality (%). On the procedure: Roots of pea seedlings infested with an aphid population of mixed ages were placed directly into aqueous test solutions prepared from 10,000 DMSO stock solutions. The samples were assessed for mortality 6 days after placing seedlings into test solutions.

For data set [4], the system named is Melodoigyne incognita. Briefly: Example B14: Melodoigyne incognita juvenile mobility, in vitro profiling in 96 well plate. The note with it: 200 ppm; after 24 h; second stage juveniles; read-out: control (juvenile mobility). The procedure: Test solutions are prepared from 10,000 ppm DMSO stock solutions with a TECAN robot to achieve 20 μL of 1000, 200, 100, 50, 25 and 12.5 ppm. For each concentration three replicates are produced. Per well, 80 μL nematode solution is added containing 100 to 150 freshly harvested second stage juveniles of Melodoigyne incognita. The plates are covered and stored at room temperature in the dark and incubated for 24 h. Mobility of the exposed juveniles in a treated well is measured using an imaging tool and compared to an average of 12 untreated replicates.

The subject of data set [5] is Diabrotica Balteata (Corn Root Worm). Briefly: Example B2: Diabrotica balteata, maize sprouts, L2 larvae. Particulars: for percent effect (mortality or growth inhibition) at 200 ppm: Diabrotica balteata, 96 h, application rate of 200 ppm, L2 larvae, 4 days after infestation, read-out: effect in at least one of the two categories (mortality or growth inhibition). The procedure: Maize sprouts placed onto an agar layer in 24-well microtiter plates were treated with aqueous test solutions prepared from 10,000 ppm DMSO stock solutions by spraying. After drying, the plates were infested with L2 larvae (6 to 10 per well). The samples were assessed for mortality and growth inhibition in comparison to untreated samples 4 days after infestation.

The term mortality denotes the share of the test organisms that died. With `CCS(=O)(=O)c1cc(N(C)C(=O)CCS(C)(=O)=O)cnc1-c1nc2cc(C(F)(F)F)ncc2n1C` [P31, N-[5-ethylsulfonyl-6-[3-methyl-6-(trifluoromethyl)imidazo[4,5-c]pyridin-2-yl]-3-pyridyl]-N-methyl-3-methylsulfonyl-propanamide], in data set [1], the mortality at 200 ppm was at least 80%. For the same molecule, the percent effect (mortality or growth inhibition) at 200 ppm in data set [2] was at least 80%.

As for `CCSc1cc(N(C(C)=O)C(C)C)cnc1-c1nc2cc(C(F)(F)F)ncc2n1C` [P47, N-[5-ethylsulfanyl-6-[3-methyl-6-(trifluoromethyl)imidazo[4,5-c]pyridin-2-yl]-3-pyridyl]-N-isopropyl-acetamide], the percent effect (mortality or growth inhibition) at 200 ppm in data set [2] is at least 80%.

`CCS(=O)(=O)c1cc(NC(=O)C(C)(C)O)cnc1-c1nc2cc(C(F)(F)F)ncc2n1C` [P8, N-[5-ethylsulfonyl-6-[3-methyl-6-(trifluoromethyl)imidazo[4,5-c]pyridin-2-yl]-3-pyridyl]-2-hydroxy-2-methyl-propanamide]: the mortality at 24 ppm in data set [3] is at least 80%. In addition, the mortality at 200 ppm in data set [1] is at least 80%. For the same molecule, the percent effect (mortality or growth inhibition) at 200 ppm in data set [2] is at least 80%.

With `CCS(=O)(=O)c1cc(-n2ccccc2=O)cnc1-c1nc2cc(C(F)(F)F)ncc2n1C` [reference compound], the mortality at 1.5 ppm in data set [3] is 0%. The mortality at 12.5 ppm in data set [1] turned out to be 0%. In addition, the mortality at 50 ppm in data set [2] came out at 50%.

On to `CCS(=O)(=O)c1cc(NC(=O)C(F)(F)F)cnc1-c1nc2cc(C(F)(F)F)ncc2n1C` [P44, N-[5-ethylsulfonyl-6-[3-methyl-6-(trifluoromethyl)imidazo[4,5-c]pyridin-2-yl]-3-pyridyl]-2,2,2-trifluoro-acetamide], for which the pest or weed control at 200 ppm in data set [4] is at least 80%. In data set [1], the mortality at 200 ppm is at least 80%. In addition, the percent effect (mortality or growth inhibition) at 200 ppm in data set [2] and in data set [5] was at least 80% in each case.

As for `CCSc1cc(N(C)C(C)=O)cnc1-c1nc2cc(C(F)(F)F)ncc2n1C` [P33, N-[5-ethylsulfanyl-6-[3-methyl-6-(trifluoromethyl)imidazo[4,5-c]pyridin-2-yl]-3-pyridyl]-N-methyl-acetamide], the mortality at 200 ppm in data set [1] was at least 80%. Moreover, the percent effect (mortality or growth inhibition) at 200 ppm in data set [2] is at least 80%.

`CCS(=O)(=O)c1cc(N(C)C(C)=O)ccc1-c1nc2cc(C(F)(F)F)ncc2n1C` [P16, N-[3-ethylsulfonyl-4-[3-methyl-6-(trifluoromethyl)imidazo[4,5-c]pyridin-2-yl]phenyl]-N-methyl-acetamide]: the mortality at 24 ppm in data set [3] is at least 80%. Also, the mortality at 200 ppm in data set [1] was at least 80%. In data set [2], the percent effect (mortality or growth inhibition) at 200 ppm was at least 80%.

Take `CCS(=O)(=O)c1cc(N(C)C(=O)CCSC)cnc1-c1nc2cc(C(F)(F)F)ncc2n1C` [P41, N-[5-ethylsulfonyl-6-[3-methyl-6-(trifluoromethyl)imidazo[4,5-c]pyridin-2-yl]-3-pyridyl]-N-methyl-3-methylsulfanyl-propanamide]: in data set [4], the pest or weed control at 200 ppm was at least 80%. Also, the mortality at 200 ppm in data set [1] is at least 80%. In addition, in data set [2], the percent effect (mortality or growth inhibition) at 200 ppm is at least 80%.

In the case of `CCS(=O)(=O)c1cc(N2CCNC2=O)cnc1-c1nc2cc(C(F)(F)F)ncc2n1C` [P36, 1-[5-ethylsulfonyl-6-[3-methyl-6-(trifluoromethyl)imidazo[4,5-c]pyridin-2-yl]-3-pyridyl]imidazolidin-2-one], in data set [3], the mortality at 1.5 ppm was 100% and the mortality at 24 ppm was at least 80%. Also, the pest or weed control at 200 ppm in data set [4] is at least 80%. Further, in data set [1], the mortality at 200 ppm was at least 80% and the mortality at 12.5 ppm worked out at 90%. For the same molecule, in data set [2], the mortality at 50 ppm is 100% and the percent effect (mortality or growth inhibition) at 200 ppm is at least 80%.

Turning to `CCS(=O)(=O)c1cc(N(C)C(=O)CC(F)(F)F)cnc1-c1nc2cc(C(F)(F)F)ncc2n1C` [P28, N-[5-ethylsulfonyl-6-[3-methyl-6-(trifluoromethyl)imidazo[4,5-c]pyridin-2-yl]-3-pyridyl]-3,3,3-trifluoro-N-methyl-propanamide], in data set [3], the mortality at 24 ppm is at least 80%. Besides, the mortality at 200 ppm in data set [1] was at least 80%. The percent effect (mortality or growth inhibition) at 200 ppm in data set [2] and in data set [5] was at least 80% throughout.

For the molecule `CCN(C(=O)CCl)c1cnc(-c2nc3cc(C(F)(F)F)ncc3n2C)c(S(=O)(=O)CC)c1` [P20, 2-chloro-N-ethyl-N-[5-ethylsulfonyl-6-[3-methyl-6-(trifluoromethyl)imidazo[4,5-c]pyridin-2-yl]-3-pyridyl]acetamide], the mortality at 24 ppm in data set [3] was at least 80%. Moreover, the pest or weed control at 200 ppm in data set [4] was at least 80%. The mortality at 200 ppm in data set [1] was at least 80%. Moreover, the percent effect (mortality or growth inhibition) at 200 ppm in data set [2] and in data set [5] was at least 80% in each case.

For the molecule `CCS(=O)(=O)c1cc(NC(C)=O)cnc1-c1nc2cc(C(F)(F)F)ncc2n1C` [drawing 155, reference compound], the “Mortality (%)” value in data set [5] (Concentration 200 ppm, Diabrotica balteata (Example B2)) came to 0%.

`CCC(=O)N(CC(F)(F)F)c1cnc(-c2nc3cc(C(F)(F)F)ncc3n2C)c(S(=O)(=O)CC)c1` [P32, N-[5-ethylsulfonyl-6-[3-methyl-6-(trifluoromethyl)imidazo[4,5-c]pyridin-2-yl]-3-pyridyl]-N-(2,2,2-trifluoroethyl)propanamide]: the mortality at 24 ppm in data set [3] is at least 80%. In addition, the mortality at 200 ppm in data set [1] was at least 80%. Further, the percent effect (mortality or growth inhibition) at 200 ppm in data set [2] and in data set [5] was at least 80% throughout.

With `CCS(=O)(=O)c1cc(N2CCOCC2=O)cnc1-c1nc2cc(C(F)(F)F)ncc2n1C` [P15, 4-[5-ethylsulfonyl-6-[3-methyl-6-(trifluoromethyl)imidazo[4,5-c]pyridin-2-yl]-3-pyridyl]morpholin-3-one], the mortality at 24 ppm in data set [3] was at least 80%. Further, in data set [4], the pest or weed control at 200 ppm was at least 80%. For the same molecule, the mortality at 200 ppm in data set [1] is at least 80%. In addition, the percent effect (mortality or growth inhibition) at 200 ppm in data set [2] was at least 80%.

`CCS(=O)(=O)c1cc(NC(=O)C(C)(C)C)cnc1-c1nc2cc(C(F)(F)F)ncc2n1C` [P39, N-[5-ethylsulfonyl-6-[3-methyl-6-(trifluoromethyl)imidazo[4,5-c]pyridin-2-yl]-3-pyridyl]-2,2-dimethyl-propanamide]: the mortality at 24 ppm in data set [3] is at least 80%. Besides, the pest or weed control at 200 ppm in data set [4] was at least 80%. Moreover, the mortality at 200 ppm in data set [1] is at least 80%. In data set [2], the percent effect (mortality or growth inhibition) at 200 ppm was at least 80%.

`CCS(=O)(=O)c1cc(N2CCS(=O)(=O)CC2=O)cnc1-c1nc2cc(C(F)(F)F)ncc2n1C` [P18, 4-[5-ethylsulfonyl-6-[3-methyl-6-(trifluoromethyl)imidazo[4,5-c]pyridin-2-yl]-3-pyridyl]-1,1-dioxo-1,4-thiazinan-3-one]: the percent effect (mortality or growth inhibition) at 200 ppm in data set [2] was at least 80%.

Take `CCS(=O)(=O)c1ccc(N2CCN(C)C2=O)nc1-c1nc2cc(C(F)(F)F)ncc2n1C` [reference compound]: the mortality at 1.5 ppm in data set [3] was determined as 0%. Further, the mortality at 12.5 ppm in data set [1] was found to be 80%. Also, the mortality at 50 ppm in data set [2] came to 50%.

In the case of `CCS(=O)(=O)c1cc(N2CCN(C)C2=O)cnc1-c1nc2cc(C(F)(F)F)ncc2n1C` [P37, 1-[5-ethylsulfonyl-6-[3-methyl-6-(trifluoromethyl)imidazo[4,5-c]pyridin-2-yl]-3-pyridyl]-3-methyl-imidazolidin-2-one], in data set [3], the mortality at 1.5 ppm worked out at 100% and the mortality at 24 ppm was at least 80%. The pest or weed control at 200 ppm in data set [4] was at least 80%. For the same molecule, in data set [1], the mortality at 200 ppm is at least 80% and the mortality at 12.5 ppm amounted to 90%. For the same molecule, in data set [2], the mortality at 50 ppm stood at 100% and the percent effect (mortality or growth inhibition) at 200 ppm was at least 80%.

With `CCS(=O)(=O)c1cc(NC(=O)C2CC2)cnc1-c1nc2cc(C(F)(F)F)cnc2n1C` [reference compound], the mortality at 1.5 ppm in data set [3] worked out at 0%.

The record behind these values is US20210047291A1, “PESTICIDALLY ACTIVE HETEROCYCLIC DERIVATIVES WITH SULFUR CONTAINING SUBSTITUENTS” (SYNGENTA PARTICIPATIONS AG, priority 2018, published 2021).
